Measured values reported in patent US20200171118A1.
Where two headings read alike, the source gives them in different places.

Columns and labels:
[1] = Lewis acidity measuring method (1): rate of oxidation of CoTPP by O2 in the presence of the Lewis acid; type: physicochemical; conditions: for Lewis acidity (ΔE value): calculated from rate of oxidization of CoTPP with O2
Escherichia coli MV1184 = assay: MIC/MBC determination, sterilizing effect (microplate, BHI liquid medium); type: cell-based; conditions: E. coli MV1184; substance 12.5 to 20 ppm, sodium chlorite about 0.14 mM to 0.22 mM

Compound | Lewis acidity (ΔE value) [1] [eV] | sterilizing action (sterilizing effect) of drug made from the substance and sodium chlorite (Escherichia coli MV1184) | other results
C[n+]1cccc(C(=O)[O-])c1 [Trigonelline] | 0.69 |  | 
benzethonium chloride |  | has a sterilizing action (sterilizing effect) | 
CN.Cl [methylammonium chloride] | 0.70 | has a sterilizing action (sterilizing effect) | 
CCCC[N+](CCCC)(CCCC)CCCC.F[P-](F)(F)(F)(F)F [tetrabutylammonium hexafluorophosphate] |  |  | kcat, reaction rate constant of reaction between CoTPP and oxygen in the presence of a Lewis acid [1]: >0.1 M^−2 s^−1
C[N+](C)(C)C.[Cl-] [Tetramethylammonium chloride] | 0.50 |  | 
C[N+](C)(C)CC(=O)O [Betaine] | 0.67 |  | 
Cl.N [Ammonium chloride] | 0.66 | has a sterilizing action (sterilizing effect) | 
CCCC[N+](CCCC)(CCCC)CCCC.[Cl-] [Tetrabutylammonium chloride] | 0.63 | has a sterilizing action (sterilizing effect) | 
N[C@@H](CO)C(=O)O [L-serine] |  | has a sterilizing action (sterilizing effect) | 
NCC(=O)O [glycine] |  | has a sterilizing action (sterilizing effect) | 
CC(=O)OCC[N+](C)(C)C [Acetylcholine] | 0.51 |  | 
N[C@@H](CC(=O)O)C(=O)O [L-aspartate] |  | has a sterilizing action (sterilizing effect) | 
CC[N+](CC)(CC)Cc1ccccc1.[Cl-] [Benzyltriethyl ammonium chloride] | 0.54 |  | 
oxidized glutathione |  | has a sterilizing action (sterilizing effect) | 
O=C(O)[C@@H]1CCCN1 [proline] |  | has a sterilizing action (sterilizing effect) | 
C[n+]1ccccc1C=NO.[I-] [pralidoxime methyl iodide] | 0.60 |  | 
Cc1cc2nc3cc(C)c(N)cc3[n+](-c3ccccc3)c2cc1N.[Cl-] [Safranine] | 0.67 |  | 
C[N+](C)(C)CCOC(N)=O [Carbamylcholine] | 0.52 |  | 
CCCCCCCCCCCCCCCCCC[N+](C)(C)Cc1ccccc1.[Cl-] | 0.52 | has a sterilizing action (sterilizing effect) | kcat, reaction rate constant of reaction between CoTPP and oxygen in the presence of a Lewis acid ([1]; acetonitrile, saturated O2, room temperature): 0.18 M^−2 s^−1
